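Test compounds were applied to cells in 96-well plates for 48 hours at 5 doses. Definition used: TGI = concentration required for complete inhibition of growth.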
How the values were obtained:
Test in all cases: DTP human tumour cell line panel, 48 h
SF-268 CNS = test system: SF-268 CNS
OVCAR-3 ovarian = test system: OVCAR-3 ovarian
K-562 leukemia = test system: K-562 leukemia
SK-OV-3 ovarian = test system: SK-OV-3 ovarian
HT29 colon = test system: HT29 colon
MOLT-4 leukemia = test system: MOLT-4 leukemia
MDA-N = test system: MDA-N
IGROV1 ovarian = test system: IGROV1 ovarian
TK-10 renal = test system: TK-10 renal
HCT-116 colon = test system: HCT-116 colon
MALME-3M melanoma = test system: MALME-3M melanoma
EKVX NSCLC = test system: EKVX NSCLC
UO-31 renal = test system: UO-31 renal
T-47D breast = test system: T-47D breast
A549 NSCLC = test system: A549 NSCLC
HOP-92 NSCLC = test system: HOP-92 NSCLC
MCF7 breast = test system: MCF7 breast
SNB-75 CNS = test system: SNB-75 CNS
M14 melanoma = test system: M14 melanoma
MDA-MB-435 = test system: MDA-MB-435
SK-MEL-28 melanoma = test system: SK-MEL-28 melanoma
A498 renal = test system: A498 renal
NCI/ADR-RES ovarian = test system: NCI/ADR-RES ovarian
OVCAR-5 ovarian = test system: OVCAR-5 ovarian
SNB-19 CNS = test system: SNB-19 CNS
RXF 393 renal = test system: RXF 393 renal
RPMI-8226 leukemia = test system: RPMI-8226 leukemia
DU-145 prostate = test system: DU-145 prostate
HS 578T breast = test system: HS 578T breast
SW-620 colon = test system: SW-620 colon
HOP-62 NSCLC = test system: HOP-62 NSCLC
NCI-H23 lung = test system: NCI-H23 lung
HCT-15 colon = test system: HCT-15 colon
SK-MEL-2 melanoma = test system: SK-MEL-2 melanoma
UACC-62 melanoma = test system: UACC-62 melanoma
MDA-MB-231 breast = test system: MDA-MB-231 breast
UACC-257 melanoma = test system: UACC-257 melanoma
NCI-H522 lung = test system: NCI-H522 lung
SN12C renal = test system: SN12C renal
PC-3 prostate = test system: PC-3 prostate
SF-295 CNS = test system: SF-295 CNS
786-0 renal = test system: 786-0 renal
OVCAR-4 ovarian = test system: OVCAR-4 ovarian
KM12 colon = test system: KM12 colon
NCI-H226 lung = test system: NCI-H226 lung
COLO 205 colon = test system: COLO 205 colon
SK-MEL-5 melanoma = test system: SK-MEL-5 melanoma
U251 CNS = test system: U251 CNS
CAKI-1 renal = test system: CAKI-1 renal
NCI-H460 lung = test system: NCI-H460 lung
LOX IMVI melanoma = test system: LOX IMVI melanoma
SR leukemia = test system: SR leukemia
HCC-2998 colon = test system: HCC-2998 colon
SF-539 CNS = test system: SF-539 CNS
OVCAR-8 ovarian = test system: OVCAR-8 ovarian
ACHN renal = test system: ACHN renal
HL-60(TB) leukemia = test system: HL-60(TB) leukemia
CCRF-CEM leukemia = test system: CCRF-CEM leukemia
BT-549 breast = test system: BT-549 breast

C[C@]12CC[C@H](O)C[C@@H]1CC[C@@H]1[C@@H]2CC[C@]2(C)[C@@H](c3cc(C(F)(F)F)n[nH]3)CC[C@@H]12 gave a TGI (SF-268 CNS) greater than 53.6 µM, a TGI (OVCAR-3 ovarian) of 24.8 µM and a TGI (K-562 leukemia) of 15.3 µM. For the same compound, the TGI (SK-OV-3 ovarian) was 28.4 µM, the TGI (HT29 colon) was 18.4 µM and the TGI (MOLT-4 leukemia) was 19.7 µM. For the same compound, the TGI (MDA-N) was 25.4 µM, the TGI (IGROV1 ovarian) was 19.8 µM and the TGI (TK-10 renal) was 16 µM. It also gave a TGI (HCT-116 colon) of 14 µM, a TGI (MALME-3M melanoma) greater than 53.3 µM and a TGI (EKVX NSCLC) of 28.2 µM. The TGI (UO-31 renal) was 3.1 µM, the TGI (T-47D breast) was 23.6 µM and the TGI (A549 NSCLC) was 23.1 µM. The TGI (HOP-92 NSCLC) was 9.07 µM, the TGI (MCF7 breast) was 21.1 µM and the TGI (SNB-75 CNS) was 24.5 µM. It also gave a TGI (M14 melanoma) of 23.9 µM, a TGI (MDA-MB-435) of 22.9 µM and a TGI (SK-MEL-28 melanoma) of 26.9 µM. The TGI (A498 renal) was 21.1 µM, the TGI (NCI/ADR-RES ovarian) was 23.3 µM and the TGI (OVCAR-5 ovarian) was 23.5 µM. It also gave a TGI (SNB-19 CNS) of 28.3 µM, a TGI (RXF 393 renal) of 16.5 µM and a TGI (RPMI-8226 leukemia) of 22.7 µM. The TGI (DU-145 prostate) was 22.9 µM, the TGI (HS 578T breast) was greater than 58.9 µM and the TGI (SW-620 colon) was 37.3 µM. For the same compound, the TGI (HOP-62 NSCLC) was 23 µM, the TGI (NCI-H23 lung) was 24.7 µM and the TGI (HCT-15 colon) was 24.3 µM. For the same compound, the TGI (SK-MEL-2 melanoma) was 33.1 µM, the TGI (UACC-62 melanoma) was 27.4 µM and the TGI (MDA-MB-231 breast) was 18.9 µM. For the same compound, the TGI (UACC-257 melanoma) was 16.8 µM, the TGI (NCI-H522 lung) was greater than 43.8 µM and the TGI (SN12C renal) was 21.7 µM. The TGI (PC-3 prostate) was 20.7 µM, the TGI (SF-295 CNS) was 16.9 µM and the TGI (786-0 renal) was 17 µM. For the same compound, the TGI (OVCAR-4 ovarian) was 20.2 µM, the TGI (KM12 colon) was 25.6 µM and the TGI (NCI-H226 lung) was 36.7 µM. The TGI (COLO 205 colon) was 16.2 µM, the TGI (SK-MEL-5 melanoma) was 19.6 µM and the TGI (U251 CNS) was 24.1 µM. For the same compound, the TGI (CAKI-1 renal) was 26.9 µM, the TGI (NCI-H460 lung) was 15.3 µM and the TGI (LOX IMVI melanoma) was 21.7 µM. It also gave a TGI (SR leukemia) of 15.3 µM, a TGI (HCC-2998 colon) of 34.4 µM and a TGI (SF-539 CNS) of 22.5 µM. For the same compound, the TGI (OVCAR-8 ovarian) was 21 µM, the TGI (ACHN renal) was 20 µM and the TGI (HL-60(TB) leukemia) was 2.89 µM. The TGI (CCRF-CEM leukemia) was 5.43 µM and the TGI (BT-549 breast) was 23 µM.
In the case of C=C(C)C(=O)OC1C[C@H](COC(C)=O)C2CC=C(C)C2C2OC(=O)C(=C)[C@H]12 (stereo partly drawn), the TGI (SF-268 CNS) is reported as 7.21 µM, the TGI (OVCAR-3 ovarian) is reported as 5.3 µM and the TGI (K-562 leukemia) is reported as 5.56 µM. It also gave a TGI (SK-OV-3 ovarian) of 31 µM, a TGI (HT29 colon) of 18 µM and a TGI (MOLT-4 leukemia) of 5.24 µM. It also gave a TGI (MDA-N) of 10.3 µM, a TGI (IGROV1 ovarian) of 25.5 µM and a TGI (TK-10 renal) of 18.1 µM. For the same compound, the TGI (HCT-116 colon) was 3.3 µM, the TGI (MALME-3M melanoma) was 2.55 µM and the TGI (EKVX NSCLC) was 23.4 µM. For the same compound, the TGI (UO-31 renal) was 4.91 µM, the TGI (T-47D breast) was 20.8 µM and the TGI (A549 NSCLC) was 34.2 µM. For the same compound, the TGI (HOP-92 NSCLC) was 5.9 µM, the TGI (MCF7 breast) was 14.7 µM and the TGI (SNB-75 CNS) was 24.2 µM. The TGI (M14 melanoma) was 4.23 µM, the TGI (MDA-MB-435) was 10.9 µM and the TGI (SK-MEL-28 melanoma) was 7.08 µM. It also gave a TGI (A498 renal) of 27.8 µM, a TGI (NCI/ADR-RES ovarian) of 6.23 µM and a TGI (OVCAR-5 ovarian) of 25.5 µM. It also gave a TGI (SNB-19 CNS) of 31.8 µM, a TGI (RXF 393 renal) of 14.1 µM and a TGI (RPMI-8226 leukemia) of 2.61 µM. It also gave a TGI (DU-145 prostate) of 16.5 µM, a TGI (HS 578T breast) of 14 µM and a TGI (SW-620 colon) of 6.53 µM. For the same compound, the TGI (HOP-62 NSCLC) was 27.7 µM, the TGI (NCI-H23 lung) was 14.2 µM and the TGI (HCT-15 colon) was 5.17 µM. It also gave a TGI (SK-MEL-2 melanoma) of 15.9 µM, a TGI (UACC-62 melanoma) of 16.7 µM and a TGI (MDA-MB-231 breast) of 13.5 µM. For the same compound, the TGI (UACC-257 melanoma) was 13.2 µM, the TGI (NCI-H522 lung) was 3.06 µM and the TGI (SN12C renal) was 13.1 µM. It also gave a TGI (PC-3 prostate) of 15.1 µM, a TGI (SF-295 CNS) of 33.8 µM and a TGI (786-0 renal) of 7.26 µM. It also gave a TGI (OVCAR-4 ovarian) of 5.57 µM, a TGI (KM12 colon) of 24.2 µM and a TGI (NCI-H226 lung) of 31.8 µM. The TGI (COLO 205 colon) was 6.17 µM, the TGI (SK-MEL-5 melanoma) was 20.3 µM and the TGI (U251 CNS) was 22.1 µM. The TGI (CAKI-1 renal) was 7 µM, the TGI (NCI-H460 lung) was 34.4 µM and the TGI (LOX IMVI melanoma) was 4.86 µM. The TGI (SR leukemia) was 5.07 µM, the TGI (HCC-2998 colon) was 29.2 µM and the TGI (SF-539 CNS) was 10.1 µM. The TGI (OVCAR-8 ovarian) was 13.3 µM, the TGI (ACHN renal) was 11.8 µM and the TGI (HL-60(TB) leukemia) was 2.83 µM. It also gave a TGI (CCRF-CEM leukemia) of 5.03 µM and a TGI (BT-549 breast) of 14.4 µM.
